“Also recorded” adds a separate entry of the source.
Columns and labels:
[1] = tested on: TSHR expression in ATC PDX tumors (THJ-560 / MC-Th-560); assay: IHC of TSHR and pERK in ATC PDX tumors treated with MEK/BRAF inhibitors; assay type: in vivo, NSG mice
Experimental: Immunostaining was performed on paraffin-embedded tissue. Thyroid tissue microarray (TMA) was made from archival samples. Paraffin blocks were cut into 5 μm thick sections. Slides were deparaffinized, and were rehydrated with decreasing concentrations of ethanol and finally in water. Antigen retrieval was performed using Antigen Retrieval Solution (pH 6 or pH 9) (Dako, Glostrup, Denmark), for at least 15 minutes in an autoclave, and cooling for 30 minutes at room temperature. Washing slides with 3% hydrogen peroxide (Fisher Scientific, Waltham, MA, USA) for 10 minutes blocked the activity of endogenous peroxidases. Primary anti-human antibodies were used for 60 minutes at room temperature and at the following dilutions: TSHR antibody at 1:500 (abcam, ab218108, Cambridge, UK) and NIS antibody at 1:200 (ProteinTech, 24324-1-AP, Rosemont, IL, USA), CD14 antibody at 1:100 (abcam, ab183322, Cambridge, UK), CD80 at 1:1000 (abcam, ab134120, Cambridge, UK), CD206 at 1:5000 (abcam, ab64693, Cambridge, UK), Ki67 at 1:1000 (abcam, ab15580, Cambridge, UK), cleaved caspase 3 (Asp175) CC3 at 1:100 (Cell Signaling 9661, Danvers, MA, USA), and CD31 at (Santa Cruz Biotechnology, sc-1506, Dallas, TX, USA).
In this model, 5 mm^3 MC-Th-560 ATC PDX tissue was surgically implanted into the right lateral flank of NSG mice and grown to ˜100 mm^3. Mice then received daily treatment with either vehicle control or trametinib (MEK inhibitor) at the indicated doses.
The following was performed to assess the kinetics of TSHR expression after MEK/BRAF inhibition. Mice were implanted with 5 mm^3 Th-560 ATC PDX tumors. When tumors reached ˜100 mm^3, mice were treated daily with either vehicle control or with 1.5 mg/kg R05126766 plus 1 mg/kg dabrafenib.
Immunostaining was performed on paraffin-embedded tissue. Thyroid tissue microarray (TMA) was made from archival samples. Paraffin blocks were cut into 5 μm thick sections. […] The primary antibody was detected using the Envision Labeled Kit (Dako, Glostrup, Denmark) according to the manufacturer's protocol. […]

ATC THJ-560 PDX tumors = assay: Tumor volume of ATC PDX tumors treated with MEK/BRAF inhibitors; assay type: in vivo, NSG mice
Experimental: FIGS. 9A-9J. Treatment of thyroid tumors with MAPK inhibitors results in upregulation of TSHR. […] NSG mice treated with different daily doses of trametinib for 8 days and tumor volume regression was measured. FIG. 9B) TSHR expression was restored with higher dose of trametinib, whereas pERK expression was reduced. Right. […] Left. Association between H-score of TSHR and pERK in correlation with trametinib dose-escalation. […] Assessment of tumor volume on NSG mice treated with different doses of R05126766. […] Right. ICH tumor sections showing TSRH and pERK expression. Left. H-score of TSRH and pERK in association with increasing doses of R05126766. FIG. 9E) Experimental schema of an ATC PDX model treated with MAPK inhibitors (MEKi and BRAFi). […] Treatment was begun when tumors were ˜75-100 mm^3. […] Upper panel. H-score of TSHR in ATC-derived treated tumors (One-way ANOVA; **p<0.01; n=4 mice; error bars, SEM). Lower panel. TSHR expression assessment via IHC. […] Tumor volume assessment over a period of 7 days of MAPK inhibitors dosage. FIG. 9H) Experimental schema of an ATC PDX model treated with MEK inhibitors. NSG mice were implanted with ATC PDX tumors and treatment with MEK inhibitors (for 14 days) R05126766 and trametinib started (daily dosage) when tumors reached ˜75-100 mm^3. […] Upper panel. […]

[2] = tested on: luciferase/TSHR+/+ K562 or luciferase/TSHR+/+ FTC133 cells; conditions: presence or absence of MEK inhibitor (10 nM trametinib, FTC133, 48 hours in FIG. 10A)
Experimental: Cytotoxicity assays: Cytotoxicity assays were performed as described elsewhere (see, e.g., Sterner, R. M. et al., Blood 133, 697-709 (2019)). In summation, luciferase/TSHR+/+K562 or luciferase/TSHR+/+FTC133 cells was used as a target cell. TSHR-CAR T cells or batch-matched control donor untransduced (non-transduced) T cells (UTD) were co-cultured with target cells at serial effector: target (E:T) ratios in T cell media. Cytotoxic efficiency was calculated by bioluminescence imaging on the Xenogen IVIS-200 Spectrum (PerkinElmer, Hopkinton, MA, USA) or Promega GlowMax Explorer (Promega Corporation, Fitchburg, WI, USA) at 24 hours, 48 hours, and 72 hours, as indicated in the specific experiment.
Cytotoxicity assays were performed as described elsewhere (Sterner, R. M. et al., Blood 133, 697-709 (2019)). Luciferase*TSHR*K562 or FTC133 cells were used as target cells. UTD or TSHR-CART cells were co-cultured with target cells at various effector: target (E:T) ratios in T cell medium. Cytotoxic efficiency was calculated by bioluminescence imaging on the Promega GlowMax Explorer (Promega Corporation, Fitchburg, WI, USA) at indicated time points.

[3] = one week of daily treatment at escalating doses, MC-Th-560 ATC PDX, vs placebo

| Compound | TSHR protein expression by IHC ([1]; 14 days daily oral, 1.5 mg/kg R05126766 or 1 mg/kg trametinib, vs vehicle/placebo) | TSHR expression by IHC, dose escalation [1, 3] | pERK expression by IHC, dose escalation [1, 3] | anti-tumor activity (tumor volume by caliper) (ATC THJ-560 PDX tumors; 14 days daily, placebo, R05126766 or trametinib) | tumor volume, dose escalation (ATC THJ-560 PDX tumors; different daily doses (trametinib: 8 days)) | effect of MEK inhibitor on TSHR CART cell cytotoxicity [2] |
| --- | --- | --- | --- | --- | --- | --- |
| CNS(=O)(=O)Nc1nccc(Cc2c(C)c3ccc(Oc4ncccn4)cc3oc2=O)c1F [Clone R05126766] | elevated significantly; also recorded: increased TSHR expression | increase in TSHR expression; also recorded: increased expression of TSRH | reduction of pERK; also recorded: lower expression of pERK | better anti-tumor activity in comparison to trametinib | dose-depended tumor reduction; also recorded: proportional to thyroid tumor volume reduction |  |
| CC(=O)Nc1cccc(-n2c(=O)n(C3CC3)c(=O)c3c(Nc4ccc(I)cc4F)n(C)c(=O)c(C)c32)c1 [trametinib] |  |  |  |  |  | did not impair |
